For experiment [1], the target named is T1, VapBC26 protein complex containing Y51E (Mycobacterium tuberculosis, UniProt O53778, Y51E).
Experiment [2] addresses T1, VapBC26 protein complex containing Y51E. This is another data set of the same source.

Regarding “DAELAVLRELAG [mimetic peptide for VapC26 α4]”, the “calculated area corresponding to VapC26, larger than with the native protein complex” value in experiment [1] is 15.42%. In addition, the “fluorescence increase in Y51E” value in experiment [2] worked out at 15.07%.

The values are drawn from patent publication US11795199B2, “Peptide targeting Mycobacterium tuberculosis toxin-antitoxin system and use thereof” (Seoul National University R&DB Foundation, priority 2017, dated 2023).
